These results are taken from US7196114B2, “Substituted 3-(benzoylureido) thiophene derivatives, processes for preparing them and their use” (Sanofi-Aventis Deutschland GmbH, priority 2003, dated 2007).

Data set [1] has as its target T1, human glycogen phosphorylase a (Homo sapiens, UniProt P06737).
T1 sequence (P06737 1-847): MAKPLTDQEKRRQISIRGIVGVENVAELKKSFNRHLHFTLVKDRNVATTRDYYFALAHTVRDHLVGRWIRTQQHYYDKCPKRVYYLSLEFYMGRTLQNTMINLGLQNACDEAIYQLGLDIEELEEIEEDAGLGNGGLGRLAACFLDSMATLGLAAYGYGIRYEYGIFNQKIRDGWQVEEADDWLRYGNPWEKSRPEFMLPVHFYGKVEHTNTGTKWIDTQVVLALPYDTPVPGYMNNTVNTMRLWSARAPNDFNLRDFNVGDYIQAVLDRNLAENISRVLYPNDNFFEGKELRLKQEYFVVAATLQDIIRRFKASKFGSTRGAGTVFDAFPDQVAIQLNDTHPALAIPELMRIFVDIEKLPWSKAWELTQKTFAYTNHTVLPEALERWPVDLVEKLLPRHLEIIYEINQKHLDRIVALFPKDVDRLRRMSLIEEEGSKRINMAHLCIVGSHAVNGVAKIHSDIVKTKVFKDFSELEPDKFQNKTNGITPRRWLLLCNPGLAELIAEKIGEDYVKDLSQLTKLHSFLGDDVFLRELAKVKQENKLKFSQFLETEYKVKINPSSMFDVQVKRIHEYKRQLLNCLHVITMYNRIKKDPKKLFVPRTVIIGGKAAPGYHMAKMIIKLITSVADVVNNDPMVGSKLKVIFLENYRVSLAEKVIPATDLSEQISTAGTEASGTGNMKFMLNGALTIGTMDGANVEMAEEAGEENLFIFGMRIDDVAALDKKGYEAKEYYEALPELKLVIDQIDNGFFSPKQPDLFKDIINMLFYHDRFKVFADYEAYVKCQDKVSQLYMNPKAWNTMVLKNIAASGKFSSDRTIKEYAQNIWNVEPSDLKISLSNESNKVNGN
The data set can be described thus: Glycogen phosphorylase a activity test. The note with it: inhibition of GPa in vitro, reverse direction (glycogen synthesis from glucose 1-phosphate, released inorganic phosphate, absorption at 820 nm). Format: biochemical.

In general, IC50 refers to the midpoint of a concentration-inhibition curve. With `Nc1nnc(-c2sccc2NC(=O)NC(=O)c2cc(F)c(F)cc2Cl)o1` [Example 2c, 1-[2-(5-Amino[1,3,4]oxadiazol-2-yl)thiophen-3-yl]-3-(2-chloro-4,5-difluorobenzoyl)urea], the IC50 in data set [1] stood at 0.45 µM.

The melting point is the temperature of the solid-liquid transition. `COc1ccc(-c2cc(NC(=O)NC(=O)c3cc(F)c(F)cc3Cl)c(C(N)=O)s2)cc1` [Example 24] came in with a melting point of more than 300 °C. Besides, in data set [1], the IC50 amounted to 0.04 µM.

`NC(=O)c1sc(-c2ccccc2)cc1NC(=O)NC(=O)c1cc(F)c(F)cc1Cl` [Example 17] yielded a melting point of more than 300 °C. Besides, the IC50 in data set [1] is 0.03 µM.

Turning to `O=C(NC(=O)c1cc(F)c(F)cc1Cl)Nc1cscc1-c1ccccc1` [Example 30], the IC50 in data set [1] was determined as 1.4 µM.

With `O=C(NC(=O)c1ccc(F)cc1Cl)Nc1ccsc1-c1nnn[nH]1` [Example 33], the melting point is 219.8 °C. Moreover, the IC50 in data set [1] was 0.08 µM.

`O=C(NC(=O)c1cc(F)c(F)cc1Cl)Nc1ccsc1-c1n[nH]c(=O)o1` [Example 1d, 1-(2-Chloro-4,5-difluorobenzoyl)-3-[2-(5-oxo-4,5-dihydro[1,3,4]oxadiazol-2-yl)thiophen-3-yl]urea] yielded a melting point of 236.1 °C. Also, the IC50 in data set [1] turned out to be 0.03 µM.

As for `O=C(NC(=O)c1cc(F)c(F)cc1Cl)Nc1cc(-c2ccc(F)cc2)sc1C(=O)O` [Example 3b, 3-[3-(2-Chloro-4,5-difluorobenzoyl)ureido]-5-(4-fluorophenyl)thiophene-2-carboxylic acid], the melting point was 227.7 °C. For the same molecule, the IC50 in data set [1] came out at 0.01 µM.

On to `CC(=O)c1sc(-c2ccccc2)cc1NC(=O)NC(=O)c1cc(F)c(F)cc1Cl` [Example 15], for which the melting point is 204.8 °C. The half-inhibitory concentration (IC50) in data set [1] stood at 0.17 µM.

Molecule `O=C(NC(=O)c1cc(F)c(F)cc1Cl)Nc1cc(S(=O)(=O)N2CCCCC2)sc1N1CCC(C(=O)O)CC1` [Example 4d, 1-[3-[3-(2-Chloro-4,5-difluorobenzoyl)ureido]-5-(piperidine-1-sulfonyl)-thiophen-2-yl]piperidine-4-carboxylic acid] registered a melting point of 219.9 °C. Also, the IC50 in data set [1] was found to be 0.11 µM.

On to `NC(=O)c1sc(-c2cccs2)cc1NC(=O)NC(=O)c1cc(F)c(F)cc1Cl` [Example 23], for which the melting point was > 250 °C (dec.). Further, the IC50 in data set [1] turned out to be 0.05 µM.

As for `NC(=O)c1sccc1NC(=O)NC(=O)c1cc(F)c(F)cc1Cl` [Example 6], the IC50 in data set [1] is 0.7 µM.

`O=C(NC(=O)c1cc(F)c(F)cc1Cl)Nc1cc(-c2ccccc2)sc1C(=O)O` [Example 21] yielded a melting point of 226.5 °C. The IC50 in data set [1] was determined as 0.01 µM.
